# Source: article PMC7792806, “Development of Second Generation Activity-Based Chemical Probes for Sirtuins” (Molecules, 2020)
# Legend:
# Type in all cases: biochemical
# SIRT1 = target: T1, SIRT1 (Homo sapiens, UniProt Q96EB6); assay: Sirtuin inhibition assay (HPLC), SIRT1; conditions: substrate p53K382Ac; 500 μM NAD+, 500 μM peptide, 10 μM sirtuin, pH 7.5, 37 °C
# T1 construct: Plasmids of SIRT1 (full length); made in house
# T1 sequence (Q96EB6 1-747): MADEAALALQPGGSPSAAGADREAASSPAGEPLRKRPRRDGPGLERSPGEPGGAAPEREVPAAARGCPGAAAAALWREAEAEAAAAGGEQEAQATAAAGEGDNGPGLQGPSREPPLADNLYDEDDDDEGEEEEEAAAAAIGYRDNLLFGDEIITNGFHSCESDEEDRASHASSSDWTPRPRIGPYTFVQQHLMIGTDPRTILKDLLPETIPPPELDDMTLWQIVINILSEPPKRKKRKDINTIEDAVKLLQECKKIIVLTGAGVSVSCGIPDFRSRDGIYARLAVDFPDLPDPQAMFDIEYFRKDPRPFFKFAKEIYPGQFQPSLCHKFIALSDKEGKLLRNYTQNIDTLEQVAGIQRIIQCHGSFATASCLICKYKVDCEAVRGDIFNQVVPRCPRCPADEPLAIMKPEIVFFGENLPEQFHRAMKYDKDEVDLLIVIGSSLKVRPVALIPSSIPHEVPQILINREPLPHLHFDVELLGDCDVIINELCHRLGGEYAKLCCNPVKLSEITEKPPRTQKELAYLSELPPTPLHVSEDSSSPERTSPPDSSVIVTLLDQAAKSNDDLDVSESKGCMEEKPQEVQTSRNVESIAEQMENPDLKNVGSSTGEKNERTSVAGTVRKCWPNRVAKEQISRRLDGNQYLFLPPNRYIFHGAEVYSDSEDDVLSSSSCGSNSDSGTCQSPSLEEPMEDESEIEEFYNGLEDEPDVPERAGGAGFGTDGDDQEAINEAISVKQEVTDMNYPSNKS
# Procedure: (§1) Plasmids of SIRT1 (full length), SIRT2 (38-356), SIRT3 (102-399), and SIRT5 (34-302) were generous gifts from Dr. Hening Lin (Cornell University, Ithaca, NY, USA). SIRT6 was a gift from Cheryl Arrowsmith (Addgene plasmid #28271). The proteins were expressed and purified according to previously published protocols. The identity of the protein was confirmed by tryptic digestion followed by LC-MS/MS analysis performed at the Vermont Genetic Network (VGN) Proteomics Facility. Protein concentrations were determined by Bradford assay (Thermo Fisher Scientific, Rockford, IL, USA).
# A typical reaction contained 500 μM NAD^+ and 500 μM peptide substrate (H3K9Ac for SIRT2, SIRT3 and SIRT6, p53K382Ac for SIRT1 and SIRT5) of varying concentrations of a small molecule probe in 100 mM phosphate buffer pH 7.5. The reactions were initiated by the addition of 10 μM of sirtuin and were incubated at 37 °C before being quenched by 8 μL of 10% TFA. The incubation time was controlled so that the conversion of substrate was less than 15%. The samples were then injected on an HPLC fitted to a Macherey-Nagel Nucleosil C18 column. NAD^+, NAM and AADPR (acetyl-ADP-ribose) peaks were resolved using a gradient of 0 to 20% methanol in 20 mM ammonium acetate. Chromatograms were analyzed at 260 nm. Reactions were quantified by integrating areas of peaks corresponding to NAD^+ and AADPR. Rates were plotted as a function of small molecule probe concentration, and points were fitted to the following equation:ν(%) = ν0(%) − [ν0(%)(10^x)/(10^x + IC50)](1) where ν(%) represents the turnover rate expressed as percent enzymatic activity remaining, and ν0(%) represents the uninhibited turnover rate expressed as an enzymatic activity of 100%. The variable x represents the log[probe] in nanomolar. IC50 values were derived from this equation.
# SIRT6 = SIRT6 (Homo sapiens, UniProt Q8N6T7); assay: Sirtuin inhibition assay (HPLC), SIRT6; parameters: host or cells: E. coli (inferred from b12); conditions: substrate H3K9Ac; 500 μM NAD+, 500 μM peptide, 10 μM sirtuin, pH 7.5, 37 °C; NI = Not inhibited
# Sequence of SIRT6 (Q8N6T7 whole entry): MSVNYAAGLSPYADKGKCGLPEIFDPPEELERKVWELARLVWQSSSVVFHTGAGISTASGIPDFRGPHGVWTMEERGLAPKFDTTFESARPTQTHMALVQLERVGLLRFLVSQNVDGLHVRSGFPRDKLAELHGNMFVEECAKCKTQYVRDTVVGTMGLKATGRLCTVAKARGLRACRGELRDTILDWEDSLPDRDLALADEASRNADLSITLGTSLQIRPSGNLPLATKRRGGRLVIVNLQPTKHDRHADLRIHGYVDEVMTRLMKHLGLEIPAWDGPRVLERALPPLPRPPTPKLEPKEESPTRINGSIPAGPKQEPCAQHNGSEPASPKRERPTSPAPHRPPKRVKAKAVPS
# Procedure: as §1
# A typical reaction contained 500 μM NAD^+ and 500 μM peptide substrate (H3K9Ac for SIRT2, SIRT3 and SIRT6, p53K382Ac for SIRT1 and SIRT5) of varying concentrations of a small molecule probe in 100 mM phosphate buffer pH 7.5. The reactions were initiated by the addition of 10 μM of sirtuin and were incubated at 37 °C before being quenched by 8 μL of 10% TFA. The incubation time was controlled so that the conversion of substrate was less than 15%. The samples were then injected on an HPLC fitted to a Macherey-Nagel Nucleosil C18 column. NAD^+, NAM and AADPR (acetyl-ADP-ribose) peaks were resolved using a gradient of 0 to 20% methanol in 20 mM ammonium acetate. Chromatograms were analyzed at 260 nm. Reactions were quantified by integrating areas of peaks corresponding to NAD^+ and AADPR. […]
# SIRT2 = target: T2, SIRT2 (Homo sapiens, UniProt Q8IXJ6); assay: Cell lysate labeling, SIRT2-overexpressing HEK293; conditions: 10 μM probe
# T2 construct: expressed in transfected cells; host or cells: HEK293
# T2 sequence (Q8IXJ6 1-389): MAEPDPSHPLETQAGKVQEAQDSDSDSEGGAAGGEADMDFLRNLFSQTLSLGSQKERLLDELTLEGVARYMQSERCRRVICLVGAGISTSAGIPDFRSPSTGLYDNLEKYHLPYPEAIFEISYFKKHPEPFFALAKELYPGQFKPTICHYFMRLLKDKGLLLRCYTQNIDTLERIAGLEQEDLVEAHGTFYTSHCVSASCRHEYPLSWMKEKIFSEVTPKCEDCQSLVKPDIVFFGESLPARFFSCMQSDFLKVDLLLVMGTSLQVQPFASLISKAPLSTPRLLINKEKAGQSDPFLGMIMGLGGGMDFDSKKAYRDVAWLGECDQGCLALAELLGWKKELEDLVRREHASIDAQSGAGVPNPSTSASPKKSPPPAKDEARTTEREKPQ
# Procedure: Remarkably, probe 2C was also able to label individual sirtuin isoforms in cell lysates. HEK293 cells overexpressing human SIRT2 were lysed, and the lysate was subjected to the labeling by 10 μM probe 2C.
# Cells were harvested and lysed with RIPA buffer (Thermo Fisher Scientific, Rockford, IL, USA) supplemented with protease inhibitor cocktail (Thermo Fisher Scientific, Rockford, IL, USA). Protein concentration was determined by Bradford assay. A typical labeling experiment contained 4 to 24 μg of protein, 500 μM NAD^+, and 10 μM probe in 100 mM phosphate buffer pH 7.5. The photoaffinity labeling, “click” conjugation to fluorescent dye and visualization were similar to the protocols for labeling recombinant sirtuins as described above.
IC50 (SIRT1) [mM],IC50 (SIRT6) [mM],amount of cell lysate in which labeling was still observed (SIRT2) [µg],labeling of SIRT2 in cell lysate (SIRT2; lysate of HEK293 cells overexpressing human SIRT2),Structure (SMILES)
> 2,> 5,,,C#CCCCC1(CCC(=O)N[C@@H](CCCCNC(=S)CCC(=O)O)C(=O)N[C@@H](C)C(=O)N[C@@H](C)C(=O)OC)N=N1 [Probe 2B]
,,4,clean and selective labeling of SIRT2,C#CCCCC1(CCC(=O)N[C@@H](CCCCNC(=S)CCCCCCCCCCCCC)C(=O)N[C@@H](C)C(=O)N[C@@H](C)C(=O)OC)N=N1 [Probe 2C]
